Measurements: paper PMC3471877 (PLoS ONE, 2012)
Like-named read-outs stand apart in the source and are kept apart here. Square brackets hold non-standard residues; d marks the D form. Peptide text beside a SMILES is read from it.

Legend:
recombinant ETA receptor [1] = molecular target: T1, recombinant ETA receptor (Homo sapiens, UniProt P25101); test: cell-based
[2] = molecular target: T2, ET receptors in human primary PASMC (Homo sapiens, UniProt P25101); test: cell-based; conditions: ET-1 EC50–EC70
recombinant ETB receptor [3] = molecular target: T3, recombinant ETB receptor (Homo sapiens, UniProt P24530); conditions: read-out: Kb CHO-ETB; 120 min antagonist pre-incubation; ET-1 EC50–EC70; from IC50 via Cheng-Prusoff; geometric mean n = 3–8
recombinant ETA receptor [4] = molecular target: T1, recombinant ETA receptor; conditions: read-out: Kb CHO-ETA; 120 min antagonist pre-incubation; ET-1 EC50–EC70; from IC50 via Cheng-Prusoff; geometric mean n = 3–8
[5] = molecular target: T2, ET receptors in human primary PASMC; conditions: for Kb: ET-1 EC50–EC70
[6] = molecular target: T2, ET receptors in human primary PASMC; test: cell-based; conditions: 120 min pre-incubation
[7] = molecular target: T2, ET receptors in human primary PASMC; test: cell-based; conditions: 120 min pre-incubation; remark: listed apart in the source
[8] = molecular target: T2, ET receptors in human primary PASMC; conditions: for proportion of receptors dissociated from within the first 30 seconds: estimated assuming 1:1 correlation between signal and receptor occupancy; for ROt1/2: estimated from first calcium response phase at 1 µM ET-1; for proportion of ET-1-induced signal with surmountable mode of antagonism: first calcium response phase, peak, 1 µM ET-1
[9] = molecular target: T2, ET receptors in human primary PASMC
[10] = molecular target: T2, ET receptors in human primary PASMC; remark: listed apart in the source
P2Y12 = conditions: cited from earlier work
angiotensin II receptor = conditions: cited from earlier work
recombinant ETB receptor [11] = molecular target: T3, recombinant ETB receptor; test: cell-based
[12] = Kb 10 min, 10 min antagonist pre-incubation, geometric mean n = 6
[13] = Kb PASMC, Table 1, 120 min antagonist pre-incubation, from IC50 via Cheng-Prusoff, geometric mean n = 3–8
[14] = Kb1 (first calcium response phase), peak fluorescence, IC50 at 8 nM ET-1 via Cheng-Prusoff
[15] = Kb2 (second sustained calcium response phase), AUC 3–23 min, IC50 at […] ET-1 via Cheng-Prusoff
[16] = Kb IP1 accumulation, 20 min ET-1 stimulation, IC50 at […] ET-1 via Cheng-Prusoff, n = 4
[17] = Schild Kb IP1 accumulation, 90 min ET-1 stimulation, Gaddum/Schild regression, n = 3
[18] = Kb 120 min, 120 min antagonist pre-incubation (steady state), geometric mean n = 6

T3 sequence (P24530 27-442): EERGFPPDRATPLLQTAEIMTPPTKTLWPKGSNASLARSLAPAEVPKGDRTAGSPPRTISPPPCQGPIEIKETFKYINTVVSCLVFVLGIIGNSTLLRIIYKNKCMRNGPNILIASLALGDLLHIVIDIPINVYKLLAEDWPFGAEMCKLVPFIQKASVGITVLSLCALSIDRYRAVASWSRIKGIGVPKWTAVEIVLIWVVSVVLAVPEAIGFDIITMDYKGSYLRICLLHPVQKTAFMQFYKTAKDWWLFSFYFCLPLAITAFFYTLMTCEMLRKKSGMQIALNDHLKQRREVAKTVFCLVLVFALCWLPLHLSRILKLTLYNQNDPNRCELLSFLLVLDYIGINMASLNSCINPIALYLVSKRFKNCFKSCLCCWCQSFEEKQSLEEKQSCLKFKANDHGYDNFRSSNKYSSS
T2 sequence (P25101 21-427): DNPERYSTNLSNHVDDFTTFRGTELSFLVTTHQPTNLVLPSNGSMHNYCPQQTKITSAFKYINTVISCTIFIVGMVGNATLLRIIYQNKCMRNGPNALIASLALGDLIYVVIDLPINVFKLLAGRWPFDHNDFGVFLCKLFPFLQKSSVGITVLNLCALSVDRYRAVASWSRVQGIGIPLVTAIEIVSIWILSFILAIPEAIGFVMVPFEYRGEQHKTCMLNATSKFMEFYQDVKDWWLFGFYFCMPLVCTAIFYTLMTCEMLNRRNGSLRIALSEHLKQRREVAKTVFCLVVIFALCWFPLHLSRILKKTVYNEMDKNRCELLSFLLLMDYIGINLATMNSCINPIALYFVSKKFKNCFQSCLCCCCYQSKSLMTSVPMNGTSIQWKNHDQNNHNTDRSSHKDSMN
T1 sequence (P25101 21-427): as above

Row | Kb (recombinant ETA receptor [1]) [nM] | Kb [2, 12] [nM] | Kb [2, 13] [nM] | proportion of ET-1-induced signal with surmountable mode of antagonism [8] | Kb [2, 18] [nM] | mode of antagonism, IP1 accumulation ([10]; 20 min ET-1 stimulation) | mode of antagonism, IP1 accumulation ([10]; 90 min ET-1 stimulation) | Kb (recombinant ETB receptor [11]) [nM] | Compound | also measured
1 | 9.4 | 0.61 | 0.62 |  |  |  |  |  | CC(C)C[C@@H]1NC(=O)[C@@H](C(C)C)NC(=O)[C@@H]2CCCN2C(=O)[C@@H](CC(=O)O)NC(=O)[C@@H](Cc2c[nH]c3ccccc23)NC1=O [BQ-123] (cyclo(L[dW][dD]P[dV])) | 
2 |  | 0.11 |  | ~30% | 0.12 | surmountable | surmountable antagonism |  | COC(c1ccccc1)(c1ccccc1)[C@H](Oc1nc(C)cc(C)n1)C(=O)O [ambrisentan] | Ki [6, 14]: 0.27 nM; Ki [6, 15]: 0.14 nM; Kb [7, 16]: 1.1 nM; Kb [7, 17]: 1.6 nM; proportion of receptors dissociated from within the first 30 seconds [8]: ~30%; ROt1/2 [8]: < 1 min; receptor occupancy half-life (ROt1/2) [9]: 0.667 min
3 |  |  |  | ~50% |  | surmountable | surmountable antagonism |  | COc1ccccc1Oc1c(NS(=O)(=O)c2ccc(C(C)(C)C)cc2)nc(-c2ncccn2)nc1OCCO [bosentan] | proportion of receptors dissociated from within the first 30 seconds [8]: ~50%; ROt1/2 [8]: < 1 min
4 |  | 0.86 |  | no surmountable behavior | 0.14 | insurmountable | surmountable antagonism |  | CCCNS(=O)(=O)Nc1ncnc(OCCOc2ncc(Br)cn2)c1-c1ccc(Br)cc1 [macitentan] | Ki [6, 14]: 0.17 nM; Ki [6, 15]: 0.093 nM; Kb [7, 16]: 0.74 nM; Kb [7, 17]: 1.4 nM; mode of antagonism, second sustained phase of calcium elevation ([8]; AUC 3–23 min after ET-1): insurmountable; increase in ROt1/2 compared to ambrisentan and bosentan [9]: ~15 fold; receptor occupancy half-life (ROt1/2) [9]: 17 min; loss in potency after washout ([9]; over 60 min after washout): 13 fold; mode of antagonism, IP1 accumulation ([10]; 20 min ET-1 stimulation, listed as Macitentan): insurmountable antagonism
5 | 0.26 | 0.042 | 0.01 |  | 0.01 |  |  | 0.5 | COc1ccccc1Oc1c(NS(=O)(=O)c2ccc(C(C)C)cn2)nc(-c2ccnc(-c3nnn[nH]3)c2)nc1OCCO [tezosentan] | 

The remaining lines, values behind:

Row | Compound | Kb (recombinant ETA receptor [1]) [nM] | Kb [2, 12] [nM] | Kb [2, 13] [nM] | proportion of ET-1-induced signal with surmountable mode of antagonism [8] | Kb [2, 18] [nM] | mode of antagonism, IP1 accumulation ([10]; 20 min ET-1 stimulation) | mode of antagonism, IP1 accumulation ([10]; 90 min ET-1 stimulation) | Kb (recombinant ETB receptor [11]) [nM] | also measured
6 | CCCC[C@@H](NC(=O)[C@@H](Cc1cn(C(=O)OC)c2ccccc12)NC(=O)[C@H](CC(C)(C)C)NC(=O)N1[C@H](C)CCC[C@@H]1C)C(=O)O [BQ-788] |  |  |  |  |  |  |  |  | Kb (recombinant ETB receptor [3]): 0.09 nM; Kb (recombinant ETA receptor [4]): 277 nM; Kb ratio ([5]; Kb 10 min versus 120 min pre-incubation (fold increase in potency)): 1.0; Kb ([5]; read-out: Kb 10 min, 10 min antagonist pre-incubation, geometric mean n = 6): 121 nM; Kb ([5]; read-out: Kb 120 min, 120 min antagonist pre-incubation (steady state), geometric mean n = 6): 117 nM; Kb ([5]; read-out: Kb PASMC, Table 1, 120 min antagonist pre-incubation, from IC50 via Cheng-Prusoff, geometric mean n = 3–8): 117 nM
7 | COC(=O)[C@H](c1ccccc1Cl)N1CCc2sccc2C1 [clopidogrel] |  |  |  |  |  |  |  |  | binding mode (P2Y12): irreversible binding
8 | CCCCc1nc(Cl)c(CO)n1Cc1ccc(-c2ccccc2-c2nn[nH]n2)cc1 [losartan] |  |  |  |  |  |  |  |  | shorter ROt1/2 compared to candesartan and olmesartan (angiotensin II receptor): 15–25 fold
9 | Cc1cc2c(cc1CC(=O)c1sccc1S(=O)(=O)Nc1onc(C)c1Cl)OCO2 [sitaxentan] | 20 | 2.9 | 4.2 |  | 4.2 |  |  | 4470 | 
10 | COc1nc(C)cnc1NS(=O)(=O)c1cccnc1-c1ccc(-c2nnco2)cc1 [zibotentan] |  |  |  |  |  |  |  | 4390 | 
